# Assays:
# Type in all cases: in vivo, human
# [1] = tested on: anxiety; test: Anxiety states monitored in twenty one patients after flumazenil
# Excerpt: Twenty one patients were monitored after treatment with flumazenil for the following states: (i) calmness, (ii) tenseness, (iii) relaxation, (iv) contentedness, (v) worry; and (vi) upset.
# [2] = tested on: opioid use; test: Abstinence from opioids in 108 patients treated with flumazenil; details: 91.2% before flumazenil
# Excerpt: In the 108 patients treated with flumazenil abstinence from opioids increased from 91.2% before flumazenil to 100% following the flumazenil treatment.
# [3] = tested on: migraine; test: Treatment of migraine in a person with flumazenil infusion and subcutaneous implants
# Method: The patient recently presented to our clinic, and was treated with flumazenil given subcutaneously at a rate of 160 micrograms per hour, delivered by a spring driven pump for a continuous period of time. The time that the migraines regularly occurred was the week prior to menstruation.
# The patient was then treated with a subcutaneous implant delivering an estimated 60-80 micrograms per hour of flumazenil (based on water bath release rate testing). The implant was expected to last 8-10 weeks. This prevented the migraines for about 9-10weeks. In the week before the implant was inserted, the patient's blood flumazenil level was noted to be 0.5 ng/ml. The usual expected level for 160 microgram an hour infusions was in the order of 2-3 ng per ml and 1-1.5 ng for 80 microgram per hour infusions.
# This finding that the migraines were stopped for a nine week period of time was amazing to the patient as they had suffered migraines for typically three weeks out of four for all of the years […]. At the end of week 8 on the first implant their blood flumazenil level was recorded as 0.5 ng per ml, which is considered a low level. Within a week another migraine started and the patient presented to the clinic for treatment.
# A further subcutaneous implant was inserted and within four hours all symptoms from the migraine had settled. This was most unusual and unexpected as the symptoms following migraines usually persisted many days for this patient.
# This next implant was also delivering an estimated 60-80 micrograms of flumazenil per hour. Evidence of ovulation was confirmed by routine elevation of progesterone during the luteal phase of one of the two cycles during the time of this second implant. Again no migraines occurred during an 8-9 week time of the second implant. Blood levels of flumazenil at 1.2 and 1.3 ng/ml were recorded during the time of the second implant. After 9-10 weeks the patient, presented to a teaching hospital on the weekend with another migraine. They were treated with all the modern treatments for migraines without resolution of the migraine.
# A few days later a third implant was inserted. It again was surprising that all symptoms relating to the migraine settled within four hours.
# [4] = Swelling at the site of subcutaneous injection of flumazenil solution; details: 16 mg per 30 ml solution, 4 mg in 7.5 ml a day versus standard ampoules 4 mg in 40 ml
# Method: In our experience, this is the first flumazenil solution prepared for subcutaneous delivery making it possible to deliver 4 mg of flumazenil in a volume of just 7.5 ml per day. Clinically, this is preferred to the standard flumazenil preparations, which involve injecting 4 mg in 40 ml per day. For example, the lower volume results in less swelling at the site of injection.
# During our development of flumazenil ampoules we have found the preferred pH is about 4±1. In addition, the volume and dilution of flumazenil is preferably 16 mg per 30 ml. In our experience this was the first flumazenil made for subcutaneous delivery, and therefore, a dose of flumazenil at 4 mg can be administered in a volume of only 7.5 ml a day. Clinically, this is more convenient than the standard flumazenil ampoules which involve injecting 4 mg in a volume of 40 ml. […] In addition, the packaging of a dose of flumazenil of 16 mg in 30 ml enables clinical staff to use one ampoule for 4 days at 4 mg a day and one ampoule for 8 days at doses of 2 mg per day.
# [5] = tested on: methamphetamine use; test: Survey of 109 patients, methamphetamine use after flumazenil infusion
# Excerpt: In a survey of 109 patients treated with flumazenil 4.9% were using methamphetamines daily and this fell to 0.9% following treatment with the flumazenil infusion. Abstinence from methamphetamine use increased from 67% before flumazenil treatment to 87% following treatment. This means that 33% of patients using methamphetamines fell to 13% following treatment with flumazenil.
# [6] = tested on: cannabis withdrawal; test: Withdrawal from cannabis with high THC concentrations; details: flumazenil 160 μg/hour
# Excerpt: Cannabis use has changed in recent years with a significant cohort describing high tetrahydrocannabinol (THC) concentrations in potent strains which are cultivated for their high THC content. In the patient group using these high concentrations of THC, we have noted that a group of patients give a clear cut history of extreme nausea, vomiting, anxiety changing to serious paranoid thoughts and delusions followed by psychosis over the first 3-5 days of ceasing drug use.
# In a severe patient population, ondansetron may be given every 6-8 hours to assist in reducing the nausea and associated anxiety symptoms.
# Our results indicated a clear reduction in anxiety, and paranoid symptoms, allowing patients who otherwise would be unable to cope with the symptoms, to cease cannabis use.
# [7] = tested on: psychosis; test: Drug or anxiety induced episodes of psychosis at detoxification; details: patients with history of psychosis after ceasing cannabis, amphetamines and alcohol; sustained delivery
smiles,measurement,setting,value
CCOC(=O)c1ncn2c1CN(C)C(=O)c1cc(F)ccc1-2 [flumazenil],levels of relaxation following treatment,[1]; twenty one patients,statically significant increase
same,"states of calmness, tenseness, relaxation, contentedness, worry and upset",[1]; twenty one patients after treatment,improved
same,abstinence from opioids following treatment,[2],100%
same,time until all symptoms from the migraine had settled,[3]; after insertion of the further (second) subcutaneous implant,four
same,time until all symptoms relating to the migraine settled,[3]; after insertion of the third implant,four
same,time without migraines,"[3]; second implant, estimated 60-80 micrograms flumazenil per hour",8-9 week
same,occurrence of migraine at the expected time (week prior to menstruation),[3]; subcutaneous infusion 160 micrograms per hour by spring driven pump,did not occur
same,swelling of the tissues at the site of injection,[4],less swelling
same,patients using methamphetamines following treatment,[5]; 33% before treatment,13%
same,patients using methamphetamines daily following treatment,"[5]; 109 patients, flumazenil infusion, 4.9% before",0.9%
same,abstinence from methamphetamine use following treatment,"[5]; 109 patients, 67% before flumazenil treatment",87%
same,"nausea, vomiting, anxiety, paranoid thoughts, delusions, psychosis on ceasing high-THC cannabis",[6],controls or reduces the presence of these symptoms
same,onset of psychosis with detoxification,[7],prevents the onset of psychosis

# Source: patent publication US20220152044A1, “TREATMENT OF INFLAMMATORY DISEASES OF THE CENTRAL NERVOUS SYSTEM” (PALMAYA PTY LTD, priority 2019, published 2022)
